Legend:
Format in all cases: in vivo
Holstein cows [1] = experiment: Calculated net energy balance (net energy intake minus net energy secreted in milk)
Text: (§1) One hundred and twenty Holstein cows who were to begin their second or greater lactation are randomly selected to receive one of four Conjugated Linoleic Acid (CLA) supplementation regimens. Control cows receive no supplemental CLA (0 CLA), cows offered Treatment 1 receive the cis-9, trans-11 CLA isomer (9, 11 CLA), cows offered Treatment 2 receive the trans-10, cis-12 CLA isomer (10, 12 CLA) and cows offered Treatment 3 receive both isomers in a 50:50 mix (mixed CLA).
Isomers of CLA are obtained at 85% purity and are converted to their amide form (unsubstituted) for a rumen bypass rate of 65%. The remaining 15% of the 85% pure CLA isomers are the other isomers of CLA. Treatments 1 and 2 are formulated to deliver 7 grams of each CLA isomer per cow/day at the intestinal level. […]
(§2) Other measurements include: Start-up milk production (defined as colostrum milk secreted in the first 24 hours postpartum) analyzed for milk fat and fatty acid composition; Daily milk production and composition (total fat and protein); Daily dry matter intake (DMI); Calculated net energy balance defined as net energy intake minus net energy secreted in milk expressed in megacalories (Mcal) per day.
Calculated average energy balance postpartum is actual daily […] minus actual daily milk energy outputs.

[2] = tested on: mammary glands of Holstein cows; experiment: Mammary gland total parenchymal DNA and RNA-to-DNA ratio at day 15 postpartum; settings: excised mammary glands, five cows per treatment
Text: as §1
(§3) Isomers of CLA are obtained at 85% purity and are converted to their amide form (unsubstituted) for a rumen bypass rate of 65%. The remaining 15% of the 85% pure CLA isomers are the other isomers of CLA. Treatments 1 and 2 are formulated to deliver 7 grams of each CLA isomer per cow/day at the intestinal level. Therefore, 13 g/cow/day of the respective CLA amides are included in the daily rations offered as Total Mixed Rations (TMR) (i.e., 13 g CLA amide×85% purity×65% rumen bypass=7.18 g intestinal CLA isomer). Treatment 3 is formulated to deliver 7 grams of both isomers per cow per day in the intestine resulting in a 26 g supplement.
Cows are fed their CLA treatments beginning 7 days prepartum and remain on the supplement until 35 days postpartum. To maintain the diets isoenergetic with equal amounts of added fat to the diets, the CLA amides are substituted for Megalac (calcium salts of palm fatty acids). […]

Holstein cows [3] = experiment: Milk production and composition of postpartum cows fed CLA amide supplements
Text: as §1, §3
Cows are fed their CLA treatments beginning 7 days prepartum and remain on the supplement until 35 days postpartum. To maintain the diets isoenergetic with equal amounts of added fat to the diets, the CLA amides are substituted for Megalac (calcium salts of palm fatty acids). Postpartum diets are offered immediately postpartum.
Prepartum diets are formulated to meet or exceed NRC (2000) requirements at a daily intake of 10.6 kg of DM. This is done to assure that all feed is consumed in a 24-hour period. Postpartum diets are also formulated to meet or exceed requirements for a cow producing (ca.) 45 kg of milk daily at ad libitum consumption of DM.
Cows are milked four times per day to assure maximum expression of production potential and are housed and fed in individual tie-stalls to obtain individual estimates of DMI.
as §2

[4] = average for the next 34 days postpartum
[5] = colostrum, first 24 hours postpartum

For `CCCCCC/C=C/C=C\CCCCCCCC(=O)O` [9, 11 CLA, cis-9, trans-11 conjugated linoleic acid], the “Calculated average energy blance postpartum” value (Holstein cows [1]; [4]) was −1.1c Mcal/d, the “Calculated energy balance at the end of day-1 postpartum” value (Holstein cows [1]; end of day-1 postpartum) was −3.6b Mcal and the “Total parenchymal DNA, lower compared to 0 CLA group” value [2] was 18%. For the same compound, the “FCM (fat corrected milk, 4% fat)” value (Holstein cows [3]; [4]) was 36.88a kg/d, the Milk (Holstein cows [3]; [4]) was 40.2a kg/d and the Milk fat (Holstein cows [3]; [4]) was 1.04a kg/d. The Milk fat % (Holstein cows [3]; [4]) was 3.45a %, the “SCFA + MCFA:LCFA (ratio of short plus medium chain to long chain fatty acids in milk fat)” value (Holstein cows [3]; [4]) was 58.42b and the “Startup milk fat %” value (Holstein cows [3]; [5]) was 8.9c %. The “Startup milk fat kg” value (Holstein cows [3]; [5]) was 1.44b kg, the Startup milk (Holstein cows [3]; colostrum, first 24 hours postpartum, 7 g of each CLA isomer/cow/day at intestinal level) was 20.2a kg and the “Startup FCM (fat corrected milk, 4% fat)” value (Holstein cows [3]; first 24 hours postpartum) was 35.05c kg.
